Reference: PubChem BioAssay (NCI)
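48-hour exposure; five concentrations; linearly interpolated endpoints. TGI: total growth inhibition.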

Key:
Assay in all cases: NCI anticancer screen, dose series, 48 h
786-0 renal = test system: 786-0 renal
A498 renal = test system: A498 renal
ACHN renal = test system: ACHN renal
BT-549 breast = test system: BT-549 breast
CAKI-1 renal = test system: CAKI-1 renal
CCRF-CEM leukemia = test system: CCRF-CEM leukemia
COLO 205 colon = test system: COLO 205 colon
DU-145 prostate = test system: DU-145 prostate
EKVX NSCLC = test system: EKVX NSCLC
HCC-2998 colon = test system: HCC-2998 colon
HCT-116 colon = test system: HCT-116 colon
HCT-15 colon = test system: HCT-15 colon
HL-60(TB) leukemia = test system: HL-60(TB) leukemia
HOP-62 NSCLC = test system: HOP-62 NSCLC
HOP-92 NSCLC = test system: HOP-92 NSCLC
HS 578T breast = test system: HS 578T breast
HT29 colon = test system: HT29 colon
IGROV1 ovarian = test system: IGROV1 ovarian
K-562 leukemia = test system: K-562 leukemia
KM12 colon = test system: KM12 colon
LOX IMVI melanoma = test system: LOX IMVI melanoma
M14 melanoma = test system: M14 melanoma
MCF7 breast = test system: MCF7 breast
MDA-MB-231 breast = test system: MDA-MB-231 breast
MDA-MB-435 = test system: MDA-MB-435
MDA-N = test system: MDA-N
MOLT-4 leukemia = test system: MOLT-4 leukemia
NCI-H226 lung = test system: NCI-H226 lung
NCI-H23 lung = test system: NCI-H23 lung
NCI-H460 lung = test system: NCI-H460 lung
NCI/ADR-RES ovarian = test system: NCI/ADR-RES ovarian
OVCAR-3 ovarian = test system: OVCAR-3 ovarian
OVCAR-4 ovarian = test system: OVCAR-4 ovarian
OVCAR-5 ovarian = test system: OVCAR-5 ovarian
OVCAR-8 ovarian = test system: OVCAR-8 ovarian
PC-3 prostate = test system: PC-3 prostate
RPMI-8226 leukemia = test system: RPMI-8226 leukemia
RXF 393 renal = test system: RXF 393 renal
SF-268 CNS = test system: SF-268 CNS
SF-295 CNS = test system: SF-295 CNS
SF-539 CNS = test system: SF-539 CNS
SK-MEL-2 melanoma = test system: SK-MEL-2 melanoma
SK-MEL-28 melanoma = test system: SK-MEL-28 melanoma
SK-MEL-5 melanoma = test system: SK-MEL-5 melanoma
SK-OV-3 ovarian = test system: SK-OV-3 ovarian
SN12C renal = test system: SN12C renal
SNB-19 CNS = test system: SNB-19 CNS
SNB-75 CNS = test system: SNB-75 CNS
SW-620 colon = test system: SW-620 colon
T-47D breast = test system: T-47D breast
TK-10 renal = test system: TK-10 renal
U251 CNS = test system: U251 CNS
UACC-257 melanoma = test system: UACC-257 melanoma
UACC-62 melanoma = test system: UACC-62 melanoma
UO-31 renal = test system: UO-31 renal
A549 NSCLC = test system: A549 NSCLC
MALME-3M melanoma = test system: MALME-3M melanoma
NCI-H522 lung = test system: NCI-H522 lung

Measured: TGI

Oc1ccc2c(c1)OCC1c3ccccc3OC21 (stereo unspecified)
86.7 µM: EKVX NSCLC
83.4 µM: HL-60(TB) leukemia
65.2 µM: MOLT-4 leukemia
> 100 µM: 786-0 renal | A498 renal | ACHN renal | BT-549 breast | CAKI-1 renal | CCRF-CEM leukemia | COLO 205 colon | DU-145 prostate | HCC-2998 colon | HCT-116 colon | HCT-15 colon | HOP-62 NSCLC | HOP-92 NSCLC | HS 578T breast | HT29 colon | IGROV1 ovarian | K-562 leukemia | KM12 colon | LOX IMVI melanoma | M14 melanoma | MCF7 breast | MDA-MB-231 breast | MDA-MB-435 | MDA-N | NCI-H226 lung | NCI-H23 lung | NCI-H460 lung | NCI/ADR-RES ovarian | OVCAR-3 ovarian | OVCAR-4 ovarian | OVCAR-5 ovarian | OVCAR-8 ovarian | PC-3 prostate | RPMI-8226 leukemia | RXF 393 renal | SF-268 CNS | SF-295 CNS | SF-539 CNS | SK-MEL-2 melanoma | SK-MEL-28 melanoma | SK-MEL-5 melanoma | SK-OV-3 ovarian | SN12C renal | SNB-19 CNS | SNB-75 CNS | SW-620 colon | T-47D breast | TK-10 renal | U251 CNS | UACC-257 melanoma | UACC-62 melanoma | UO-31 renal

Nc1ncnc2nc(N3CCN(CCO)CC3)[nH]c12
> 100 µM: 786-0 renal | A498 renal | A549 NSCLC | ACHN renal | BT-549 breast | CAKI-1 renal | CCRF-CEM leukemia | COLO 205 colon | DU-145 prostate | EKVX NSCLC | HCC-2998 colon | HCT-116 colon | HCT-15 colon | HL-60(TB) leukemia | HOP-62 NSCLC | HS 578T breast | HT29 colon | IGROV1 ovarian | K-562 leukemia | KM12 colon | LOX IMVI melanoma | M14 melanoma | MALME-3M melanoma | MCF7 breast | MDA-MB-231 breast | MDA-MB-435 | MDA-N | MOLT-4 leukemia | NCI-H226 lung | NCI-H23 lung | NCI-H460 lung | NCI-H522 lung | NCI/ADR-RES ovarian | OVCAR-3 ovarian | OVCAR-4 ovarian | OVCAR-5 ovarian | OVCAR-8 ovarian | PC-3 prostate | RPMI-8226 leukemia | RXF 393 renal | SF-268 CNS | SF-295 CNS | SF-539 CNS | SK-MEL-2 melanoma | SK-MEL-28 melanoma | SK-MEL-5 melanoma | SK-OV-3 ovarian | SN12C renal | SNB-19 CNS | SW-620 colon | T-47D breast | TK-10 renal | U251 CNS | UACC-257 melanoma | UACC-62 melanoma | UO-31 renal

O=S(=O)(O)c1ccc(N=Nc2ccc(N=Nc3c(O)c(S(=O)(=O)O)cc4cc(S(=O)(=O)O)ccc34)cc2)cc1
> 100 µM: 786-0 renal | A549 NSCLC | ACHN renal | BT-549 breast | CAKI-1 renal | CCRF-CEM leukemia | COLO 205 colon | DU-145 prostate | EKVX NSCLC | HCC-2998 colon | HCT-116 colon | HCT-15 colon | HL-60(TB) leukemia | HOP-62 NSCLC | HOP-92 NSCLC | HS 578T breast | HT29 colon | IGROV1 ovarian | K-562 leukemia | KM12 colon | M14 melanoma | MALME-3M melanoma | MCF7 breast | MDA-MB-231 breast | MDA-MB-435 | MDA-N | MOLT-4 leukemia | NCI-H226 lung | NCI-H23 lung | NCI-H460 lung | NCI-H522 lung | NCI/ADR-RES ovarian | OVCAR-3 ovarian | OVCAR-4 ovarian | OVCAR-5 ovarian | OVCAR-8 ovarian | PC-3 prostate | RPMI-8226 leukemia | RXF 393 renal | SF-268 CNS | SF-295 CNS | SF-539 CNS | SK-MEL-2 melanoma | SK-MEL-28 melanoma | SK-MEL-5 melanoma | SK-OV-3 ovarian | SN12C renal | SNB-19 CNS | SW-620 colon | T-47D breast | TK-10 renal | U251 CNS | UACC-257 melanoma | UACC-62 melanoma | UO-31 renal
